Assay [1] relates to Human immunodeficiency virus 1. The assay can be described thus: Antiviral activity against wild type HIV1 infected in MAGIC-5 cells using 5-bromo4-chloro-3-indolyl-beta-D-galactopyranoside staining based light microscopy. Format: functional, organism-based. Particulars: Human immunodeficiency virus 1, MAGIC-5.
The test system of assay [2] is Human immunodeficiency virus 1. The experiment in a line: Antiviral activity against recombinant HIV1 harboring reverse transcriptase V106A mutant clone infected in MAGIC-5 cells using 5-bromo4-chloro-3-indolyl-beta-D-galactopyranoside staining based light microscopy. Format: functional, organism-based. Particulars: Human immunodeficiency virus 1, MAGIC-5.
Assay [3] deals with Human immunodeficiency virus 1. The experiment in a line: Antiviral activity against recombinant HIV1 harboring reverse transcriptase V106I mutant clone infected in MAGIC-5 cells using 5-bromo4-chloro-3-indolyl-beta-D-galactopyranoside staining based light microscopy. As to conditions: Human immunodeficiency virus 1, MAGIC-5. Format: functional, organism-based.
Assay [4] has as its system Human immunodeficiency virus 1. The assay can be described thus: Antiviral activity against recombinant HIV1 harboring reverse transcriptase V179D mutant clone infected in MAGIC-5 cells using 5-bromo4-chloro-3-indolyl-beta-D-galactopyranoside staining based light microscopy. As to conditions: Human immunodeficiency virus 1, MAGIC-5. Format: functional, organism-based.

The test system of assay [5] is Human immunodeficiency virus 1. The experiment in a line: Antiviral activity against recombinant HIV1 harboring reverse transcriptase V106A/V179D mutant clone infected in MAGIC-5 cells using 5-bromo4-chloro-3-indolyl-beta-D-galactopyranoside staining based light microscopy. Format: functional, organism-based. Particulars: Human immunodeficiency virus 1, MAGIC-5.
Assay [6] has as its system Human immunodeficiency virus 1. The assay can be described thus: Antiviral activity against recombinant HIV1 harboring reverse transcriptase V106I/V179D mutant clone infected in MAGIC-5 cells using 5-bromo4-chloro-3-indolyl-beta-D-galactopyranoside staining based light microscopy. Format: functional, organism-based. As to conditions: Human immunodeficiency virus 1, MAGIC-5.

Assay [7] deals with Human immunodeficiency virus 1. The assay can be described thus: Resistance index, ratio of EC50 for recombinant HIV1 harboring reverse transcriptase V106A mutant clone to EC50 for wild type HIV1. Format: functional.
For assay [8], the system named is Human immunodeficiency virus 1. The experiment in a line: Resistance index, ratio of EC50 for recombinant HIV1 harboring reverse transcriptase V179D mutant clone to EC50 for wild type HIV1. Format: functional.
Assay [9] deals with Human immunodeficiency virus 1. The experiment in a line: Resistance index, ratio of EC50 for recombinant HIV1 harboring reverse transcriptase V106A/V179D mutant clone to EC50 for wild type HIV1. Format: functional.
For assay [10], the system named is Human immunodeficiency virus 1. The assay can be described thus: Resistance index, ratio of EC50 for recombinant HIV1 harboring reverse transcriptase V106I/V179D mutant clone to EC50 for wild type HIV1. Format: functional.
Assay [11] relates to Human immunodeficiency virus 1. The assay can be described thus: Resistance index, ratio of EC50 for recombinant HIV1 harboring reverse transcriptase V106I mutant clone to EC50 for wild type HIV1. Format: functional.

The values that follow come from ChEMBL document CHEMBL1255414, “Combination of V106I and V179D polymorphic mutations in human immunodeficiency virus type 1 reverse transcriptase confers resistance to efavirenz and nevirapine but not etravirine” (Antimicrob Agents Chemother, 2010).

In general, EC50 refers to the midpoint of the concentration-response curve.

Turning to `Cc1ccnc2c1NC(=O)c1cccnc1N2C1CC1` [NEVIRAPINE], the EC50 was determined as 50 nM in assay [1]; 3430 nM in assay [2]; 20 nM in assay [3]; 130 nM in assay [4]; 4530 nM in [5]; 370 nM in assay [6]. Further, the “Ratio EC50” value in [7] was determined as 69; in assay [8], 2.6; in assay [9], 91; in assay [10], 7; in assay [11], 0.4.

For `Cc1cc(C#N)cc(C)c1Oc1nc(Nc2ccc(C#N)cc2)nc(N)c1Br` [ETRAVIRINE], the EC50 in assay [1] was 1.2 nM; in [2] it was 0.5 nM; in assay [3] it was 1.5 nM; in assay [4] it was 1.9 nM; in assay [5] it was 1.4 nM; in assay [6] it was 2.4 nM. The “Ratio EC50” value is 0.4 in assay [7]; 1.6 in assay [8]; 1.2 in [9]; 2 in assay [10]; 1.3 in [11].

For `O=C1Nc2ccc(Cl)cc2[C@@](C#CC2CC2)(C(F)(F)F)O1` [EFAVIRENZ], the EC50 turned out to be 3 nM in [2]; 3 nM in [3]; 4 nM in [4]; 13 nM in [5]; 29 nM in [6].
